SMILES strings stand for the structures. Bounds are passed on as bounds.

The target of experiment [1] is T1, human muscarinic M2 receptor (Homo sapiens, UniProt P08172).
T1 sequence (P08172 1-466): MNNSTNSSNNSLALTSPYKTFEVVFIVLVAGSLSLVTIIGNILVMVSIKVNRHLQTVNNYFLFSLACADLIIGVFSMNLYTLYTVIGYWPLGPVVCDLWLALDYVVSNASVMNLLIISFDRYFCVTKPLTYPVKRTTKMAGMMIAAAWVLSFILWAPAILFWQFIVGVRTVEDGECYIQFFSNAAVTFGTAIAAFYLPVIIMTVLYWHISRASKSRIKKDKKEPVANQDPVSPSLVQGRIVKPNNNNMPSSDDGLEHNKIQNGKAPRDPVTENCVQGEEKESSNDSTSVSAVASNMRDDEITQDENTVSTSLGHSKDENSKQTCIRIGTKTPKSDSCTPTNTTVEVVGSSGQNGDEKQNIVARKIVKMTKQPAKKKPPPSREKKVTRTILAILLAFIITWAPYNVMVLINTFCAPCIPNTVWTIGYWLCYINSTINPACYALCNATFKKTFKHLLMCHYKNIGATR
Kind of experiment: Alphascreen Surefire phospho-ERK1/2 functional assay, M2. The class given is cell-based. As to conditions: for EC50: CHO cells stably expressing human M2, read-out: pEC50 M2 (converted); for Emax: CHO, read-out: % Emax cf. ACh, M2, CHO cells stably expressing human M2, relative to ACh. (In Alpha technology, singlet oxygen from a donor bead excites a nearby acceptor bead.)

For experiment [2], the target named is T2, human muscarinic M3 receptor (Homo sapiens, UniProt P20309).
T2 construct: expressed in transfected cells
Kind of experiment: Alphascreen Surefire phospho-ERK1/2 functional assay, M3. It is filed as cell-based. As to conditions: for EC50: CHO cells stably expressing human M3, read-out: pEC50 M3 (converted); for Emax: CHO, read-out: % Emax cf. ACh, M3, CHO cells stably expressing human M3, relative to ACh.

For experiment [3], the target named is T3, human muscarinic M4 receptor (Homo sapiens, UniProt P08173).
T3 construct: expressed in transfected cells
T3 sequence (P08173 1-479): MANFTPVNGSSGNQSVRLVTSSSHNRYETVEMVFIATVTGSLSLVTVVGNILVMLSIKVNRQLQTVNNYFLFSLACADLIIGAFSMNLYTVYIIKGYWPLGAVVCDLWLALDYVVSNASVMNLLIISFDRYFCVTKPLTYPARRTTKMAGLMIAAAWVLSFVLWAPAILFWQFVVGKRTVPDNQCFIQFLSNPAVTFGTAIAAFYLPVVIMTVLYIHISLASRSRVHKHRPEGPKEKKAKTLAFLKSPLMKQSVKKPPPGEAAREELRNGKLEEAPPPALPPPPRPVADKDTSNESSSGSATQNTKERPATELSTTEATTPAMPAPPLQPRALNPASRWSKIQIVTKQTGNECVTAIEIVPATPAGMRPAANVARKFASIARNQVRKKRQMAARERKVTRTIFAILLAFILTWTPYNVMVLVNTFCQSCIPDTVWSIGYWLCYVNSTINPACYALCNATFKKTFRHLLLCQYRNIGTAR
Briefly: Alphascreen Surefire phospho-ERK1/2 functional assay, M4. The class given is cell-based. As to conditions: for EC50: CHO cells stably expressing human M4, read-out: pEC50 M4 (converted); for Emax: CHO, read-out: % Emax cf. ACh, M4, CHO cells stably expressing human M4, relative to ACh.

In experiment [4] the test system is scopolamine-induced amnesia. Briefly: Passive avoidance, scopolamine-induced amnesia. The class given is in vivo. To be noted: 90 minutes prior to training. As for the experimental part:
Studies were carried out as described previously by Foley et al., (2004) Neuropsychopharmacology. In the passive avoidance task scopolamine administration (1 mg/kg, i.p.) at 6 hours following training rendered animals amnesic of the paradigm. A dose range of 3, 10, and 30 mg/kg (po) free base, administered 90 minutes prior to the training period via oral gavage, was examined.

Experiment [5] has as its target T4, human muscarinic M1 receptor (Homo sapiens, UniProt P11229).
T4 sequence (P11229 1-460): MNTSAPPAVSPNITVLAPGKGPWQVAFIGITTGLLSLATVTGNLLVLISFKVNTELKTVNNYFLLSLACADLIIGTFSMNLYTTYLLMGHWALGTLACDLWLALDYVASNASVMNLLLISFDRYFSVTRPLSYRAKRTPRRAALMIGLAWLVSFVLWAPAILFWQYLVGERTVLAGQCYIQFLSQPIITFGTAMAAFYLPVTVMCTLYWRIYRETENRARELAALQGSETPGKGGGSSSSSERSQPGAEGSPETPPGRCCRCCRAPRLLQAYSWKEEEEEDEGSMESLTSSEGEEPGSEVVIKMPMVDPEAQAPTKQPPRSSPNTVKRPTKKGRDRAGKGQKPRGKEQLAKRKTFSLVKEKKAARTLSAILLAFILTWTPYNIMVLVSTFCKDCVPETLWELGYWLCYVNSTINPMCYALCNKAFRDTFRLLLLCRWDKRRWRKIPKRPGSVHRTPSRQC
Kind of experiment: Alphascreen Surefire phospho-ERK1/2 functional assay, M1. It is filed as cell-based. To be noted: for EC50: CHO cells stably expressing human M1, read-out: pEC50 M1 (converted); for Emax: CHO, read-out: % Emax cf. ACh, M1, CHO cells stably expressing human M1, relative to ACh.

T2 sequence (P20309 whole entry): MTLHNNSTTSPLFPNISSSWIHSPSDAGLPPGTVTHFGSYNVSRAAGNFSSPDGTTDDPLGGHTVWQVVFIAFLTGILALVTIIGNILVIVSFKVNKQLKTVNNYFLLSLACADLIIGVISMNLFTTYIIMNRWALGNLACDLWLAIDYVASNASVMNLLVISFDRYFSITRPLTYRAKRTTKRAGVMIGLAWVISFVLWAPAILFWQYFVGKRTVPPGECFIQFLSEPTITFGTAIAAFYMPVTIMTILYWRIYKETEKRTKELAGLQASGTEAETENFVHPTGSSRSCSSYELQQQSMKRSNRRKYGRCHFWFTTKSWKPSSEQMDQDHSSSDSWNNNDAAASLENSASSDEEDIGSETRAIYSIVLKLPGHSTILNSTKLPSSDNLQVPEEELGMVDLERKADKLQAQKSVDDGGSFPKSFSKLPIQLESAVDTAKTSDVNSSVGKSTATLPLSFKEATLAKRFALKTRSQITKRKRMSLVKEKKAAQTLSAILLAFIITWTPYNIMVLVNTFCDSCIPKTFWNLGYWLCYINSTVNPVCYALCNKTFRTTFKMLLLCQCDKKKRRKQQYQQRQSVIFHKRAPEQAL

Turning to `CCOC(=O)N1C2CCC1CC(N1CCC3(CC1)CNC(=O)C3)C2` (single isomer, unassigned) [Example 2-2 Isomer 1, ethyl 3-(3-oxo-2,8-diazaspiro[4.5]dec-8-yl)-8-azabicyclo[3.2.1]octane-8-carboxylate], the “% Emax cf. ACh, M2” value in experiment [1] (CHO cells stably expressing human M2, relative to ACh) stood at 0%. In addition, in experiment [2] (CHO cells stably expressing human M3, relative to ACh, listed as 2-2 Isomer 1), the “% Emax cf. ACh, M3” value is listed as 17%. The “% Emax cf. ACh, M4” value in experiment [3] (CHO cells stably expressing human M4, relative to ACh, listed as 2-2 Isomer 1) is 53%. In experiment [4] (3, 10 and 30 mg/kg po free base, scopolamine 1 mg/kg i.p.), the “reversal of scopolamine-induced amnesia in passive avoidance” value was “reverse scopolamine-induced amnesia of the paradigm in a dose-dependent manner”. Moreover, the ED50 (commonly the dose that gives a 50% effect, or the effect in half of the subjects) in experiment [4] (po, scopolamine 1 mg/kg i.p. 6 hours following training, read-out: approximate ED50, reversal of scopolamine-induced amnesia) was about 10 mg/kg.

In the case of `CCOC(=O)N1CC2CC(N3CCC4(CC3)CNC(=O)O4)CC1C2` (single isomer, unassigned) [Example 6-3 Isomer 2], the EC50 is 25.1 nM in experiment [5], 1260 nM in experiment [1], over 20000 nM in experiment [2] and 39.8 nM in experiment [3]. Besides, the Emax (usually the greatest response seen or fitted, relative to the assay's reference) in experiment [5] turned out to be 112%; in experiment [1] it was 24%; in experiment [2], 48%; in experiment [3], 81%.

For the molecule `CCOC(=O)N1C2CCC1CC(N1CCCC3(CC1)CNC(=O)C3)C2` (single isomer, unassigned) [Example 9-1 Isomer 2, ethyl 3-(3-oxo-2,8-diazaspiro[4.6]undec-8-yl)-8-azabicyclo[3.2.1]octane-8-carboxylate], the EC50 in experiment [5] is 3.98 nM; in experiment [1], over 20000 nM; in experiment [2], over 20000 nM; in experiment [3], 2.51 nM. The maximum response (Emax) in experiment [5] was 103%; in experiment [1], 12%; in experiment [2] it was 22%; in experiment [3], 60%.

As for `CCOC(=O)N1C2CC[C@@H]1C[C@H](N1CCC3(CC1)CC(=O)N(O)C3)C2` [Example 2-24, ethyl (3-endo)-3-(2-hydroxy-3-oxo-2,8-diazaspiro[4.5]dec-8-yl)-8-azabicyclo[3.2.1]octane-8-carboxylate], the EC50 in experiment [5] was 63.1 nM; in experiment [1], over 20000 nM; in experiment [2] it was over 20000 nM; in experiment [3], over 20000 nM. Besides, the Emax in experiment [5] turned out to be 88%; in experiment [1], 4%; in experiment [2], 4%; in experiment [3], 29%.

These data come from patent publication US12202843B2, “Muscarinic receptor agonists” (Nxera Pharma UK Limited, priority 2014, dated 2025).
